Results: patent publication US20230024438A1, “INHIBITORS OF HIF-2ALPHA” (ARCUS BIOSCIENCES, INC., priority 2019, published 2023)

Assays:
HIF-2α = molecular target: T1, HIF-2α (Homo sapiens, UniProt Q99814); assay: HIF-2α Luciferase Reporter Assay; type: cell-based; conditions: HIF-Luc-786-0 cells, 20 hours incubation, luciferase activity; read-out: HIF-2α Luciferase Assay
T1 construct: endogenous in cells; host or cells: 786-O cells (ATCC CRL-1932) stably carrying the Cignal Lenti HIF Luc Reporter
Procedure: Stable cell lines were generated by transducing 786-O cells (ATCC, CRL-1932) with Cignal Lenti HIF Luc Reporter lentivirus (CLS-007L, Qiagen) according to the manufacturer's guidelines. In brief, 0.3×10^6 786-0 cells were transduced with lentivirus at a Multiplicity of Infection (MOI) of 25 for 24 hours. After transduction, cells were replenished with fresh RPMI 1640 Medium (Cat. No. 11875085, Thermo Fisher,) supplemented with 10% FBS (Cat. No. A3160502, Gibco), 2 mM GlutaMax (Cat. No. 35050-061, Invitrogen) and 100 units of penicillin and 100 μg of streptomycin/mL (Cat. No 15070063, Thermo Fisher) for another 24 hours. Antibiotic selection was performed in cell media containing 4 μg/mL of Puromycin. After 7 days of antibiotic selection, stable pools of surviving cells were expanded and used in a luciferase reporter assay.
On day one, 20 uL of HIF-Luc-786-0 cells in OptiMem (Cat. No. 31985088, Thermo Fisher) were seeded into each well of a 384 well white opaque plate (Corning 3570) and incubated at 37° C. and 5% CO2. Twenty microliters of 2× test compounds in OptiMem were added to cells after 4 hours of incubation. Final assay conditions comprised 20,000 cells per well in 1% DMSO with test compound concentrations ranging from 50 uM to 0 uM. After 20 hours incubation at 37° C. and 5% CO2, luciferase activity was determined using ONE-Glo Luciferase Assay Reagent (E6110, Promega) following the manufacture's recommended procedure. Briefly, 40 uL of ONE-Glo luciferase reagents were added to each well and luciferase signals were measured using an Envision 2102 Multilabel Reader. Percentage maximum activity in each test well was calculated based on DMSO (maximum activity) and no cell control wells (baseline activity). The IC50 values of the test compounds were determined from compound dose response curves fitted using a standard four parameter fit equation.

[1] = molecular target: T2, Histidine tagged HIF-2α protein containing PAS-B domain (240-350) (Homo sapiens, UniProt Q99814); assay: HIF-2α Scintillation Proximity Assay (SPA); type: binding; conditions: 50 nM HIF-2α protein, 25 nM radiolabeled tracer; read-out: HIF-2α Scintillation Proximity Assay
T2 construct: Histidine tagged HIF-2α protein containing PAS-B domain (240-350) was prepared and purified in house; made in house
Procedure: Tritium labeled compound N-(3-chlorophenyl)-4-nitro-2,1,3-benzoxadiazol-5-amine was obtained from American Radiolabeled Chemicals Inc. and copper chelate PVT SPA beads were from PerkinElmer (Cat #RPNQ0095). Histidine tagged HIF-2α protein containing PAS-B domain (240-350) was prepared and purified in house.
Compounds solubilized in DMSO were dispensed into a white 384-well polystyrene non-binding flat clear bottom plate (Greiner Bio-One, Cat #781903) using an HP D300 dispenser. Ten microliters of HIS-tagged HIF-2α protein in buffer (25 mM Tris-HCl, pH 7.4, 150 mM NaCl, 0.15% BSA and 0.001% Tween 20) was added to the compound wells and allowed to incubate for 1 hour at room temperature. Ten microliters of SPA bead mix were added to the wells and incubated for an additional 45 minutes, followed by 10 ul of ^3H-tracer solution. Final assay conditions comprised 50 nM HIF-2α protein, 25 nM radiolabeled tracer and 3 ug beads per well with compounds in 2% DMSO. The plate was read using a MicroBeta Microplate Counter (PerkinElmer) for luminescence detection. The IC50 values of the test compounds were determined from compound dose response curves fitted using a standard four parameter fit equation and are reported in Table 1.

T1 sequence (Q99814 whole entry): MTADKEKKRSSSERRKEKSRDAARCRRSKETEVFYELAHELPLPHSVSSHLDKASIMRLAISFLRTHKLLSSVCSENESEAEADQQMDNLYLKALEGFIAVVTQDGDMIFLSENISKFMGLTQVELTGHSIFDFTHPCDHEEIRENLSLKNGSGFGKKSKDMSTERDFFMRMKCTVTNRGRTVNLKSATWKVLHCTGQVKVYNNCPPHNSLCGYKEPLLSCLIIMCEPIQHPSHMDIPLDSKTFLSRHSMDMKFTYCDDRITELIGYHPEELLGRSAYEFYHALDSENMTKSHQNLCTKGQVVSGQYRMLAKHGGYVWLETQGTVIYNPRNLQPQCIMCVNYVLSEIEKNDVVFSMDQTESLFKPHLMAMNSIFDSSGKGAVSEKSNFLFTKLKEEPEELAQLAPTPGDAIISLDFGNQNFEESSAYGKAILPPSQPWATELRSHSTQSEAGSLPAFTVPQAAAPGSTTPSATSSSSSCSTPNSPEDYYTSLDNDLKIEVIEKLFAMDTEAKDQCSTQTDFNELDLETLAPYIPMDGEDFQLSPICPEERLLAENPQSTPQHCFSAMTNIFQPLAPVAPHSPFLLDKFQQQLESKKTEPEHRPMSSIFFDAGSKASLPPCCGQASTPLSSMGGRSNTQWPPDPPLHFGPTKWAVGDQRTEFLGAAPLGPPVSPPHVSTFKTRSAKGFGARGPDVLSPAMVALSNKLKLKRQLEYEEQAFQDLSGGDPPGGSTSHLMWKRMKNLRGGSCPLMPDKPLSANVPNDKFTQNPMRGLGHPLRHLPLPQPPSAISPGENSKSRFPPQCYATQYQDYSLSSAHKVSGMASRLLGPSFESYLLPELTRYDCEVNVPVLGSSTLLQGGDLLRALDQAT
T2 sequence (Q99814 240-350): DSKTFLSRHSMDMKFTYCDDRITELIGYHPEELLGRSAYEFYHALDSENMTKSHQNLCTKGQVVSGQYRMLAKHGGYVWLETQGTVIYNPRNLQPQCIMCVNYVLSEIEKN

Compound | IC50 (HIF-2α) | IC50 [1]
O=S(=O)(c1ccc(Oc2cc(Cl)cc(OC(F)(F)F)c2)c2cn[nH]c12)C(F)(F)F [Example 29, 4-[3-Chloro-5-(trifluoromethoxy)phenoxy]-7-(trifluoromethylsulfonyl)-1H-indazole] | > 10 µM | > 10 µM
O=S(=O)(c1ccc(Oc2cc(F)cc(Cl)c2)c2cn[nH]c12)C(F)(F)F [Example 40, 4-(3-Chloro-5-fluorophenoxy)-7-(trifluoromethylsulfonyl)-1H-indazole] | 1 to 10 µM | < 1 µM
CS(=O)(=O)c1ccc(Oc2cc(F)cc(C#N)c2)c2c(Cl)n[nH]c12 [Example 8, 3-[(3-Chloro-7-methanesulfonyl-1H-indazol-4-yl)oxy]-5-fluorobenzonitrile] | 1 to 10 µM | > 10 µM
N#Cc1cc(Nc2ccc(S(=O)(=O)C(F)(F)F)c3[nH]ncc23)ccc1F [Example 48, 2-Fluoro-5-[7-(trifluoromethylsulfonyl)-1H-indazol-4-ylamino]benzonitrile] | > 10 µM | > 10 µM
N#Cc1cccc(Oc2ccc(S(=O)(=O)C(F)(F)F)c3[nH]nc(Cl)c23)c1 [Example 62, m-[3-Chloro-7-(trifluoromethylsulfonyl)-1H-indazol-4-yloxy]benzonitrile] | > 10 µM | < 1 µM
Fc1cc(F)cc(Oc2ccc(C(F)(F)F)c3[nH]ncc23)c1 [Example 26, 4-(3,5-Difluorophenoxy)-7-(trifluoromethyl)-1H-indazole] | 1 to 10 µM | 1 to 10 µM
N#Cc1ccc(Oc2ccc(S(=O)(=O)C(F)(F)F)c3[nH]ncc23)cc1 [Example 19, p[7-(Trifluoromethylsulfonyl)-1H-indazol-4-yloxy]benzonitrile] | 1 to 10 µM | > 10 µM
O=S(=O)(c1ccc(Oc2ccc(F)c(Cl)c2)c2cn[nH]c12)C(F)(F)F [Example 38, 4-(3-Chloro-4-fluorophenoxy)-7-(trifluoromethylsulfonyl)-1H-indazole] | 1 to 10 µM | 1 to 10 µM
